Experimental data as given in patent US9777005B2 (Takeda Pharmaceutical Company Limited, priority 2012, dated 2017).

Target: T1, human M1 receptor (hCHRM1) (Homo sapiens, UniProt P11229)
T1 construct: expressed in transfected cells; host or cells: CHO-K1
T1 sequence (P11229 1-460): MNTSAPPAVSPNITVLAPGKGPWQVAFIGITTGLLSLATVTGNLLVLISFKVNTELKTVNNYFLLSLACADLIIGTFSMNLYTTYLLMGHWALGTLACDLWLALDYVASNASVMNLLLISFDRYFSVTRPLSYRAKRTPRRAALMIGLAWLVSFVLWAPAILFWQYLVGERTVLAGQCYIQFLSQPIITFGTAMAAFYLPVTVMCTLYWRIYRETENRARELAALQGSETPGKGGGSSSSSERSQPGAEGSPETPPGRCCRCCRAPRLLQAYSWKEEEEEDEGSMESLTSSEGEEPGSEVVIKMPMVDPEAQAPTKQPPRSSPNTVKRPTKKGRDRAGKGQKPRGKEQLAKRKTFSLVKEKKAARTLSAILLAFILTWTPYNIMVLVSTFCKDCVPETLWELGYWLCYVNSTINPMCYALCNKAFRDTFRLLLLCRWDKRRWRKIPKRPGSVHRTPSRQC
Test: Measurement of M1 receptor positive allosteric modulator (M1PAM) activity, calcium fluorescence (FLIPRtetra) in CHO-K1 cells in the presence of acetylcholine at EC20
Assay type: cell-based
Details: in the presence of acetylcholine at EC20 (final 0.6 nM), CHO-K1 cells expressing hCHRM1; for EC50: inflection point of M1PAM activity, read-out: IP value; for activity (%) at 10 μM: test compound 10 μM
Procedure, shortened: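 CHO-K1 cells expressing human M1 were loaded with Fluo-4 AM, and compound was added with acetylcholine at EC20 (final 0.6 nM). Calcium fluorescence was read on FLIPRtetra for 1 min. Activity was normalized to 1 μM acetylcholine (100%) and DMSO (0%), and the curve inflection point was reported as IP.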

| EC50 | activity (%) at 10 μM | Structure (SMILES) |
| --- | --- | --- |
| 71 nM | 90% | Cn1cc(-c2ccc(CN3Cc4cccc(Oc5ccc(C(O)C(F)(F)F)cc5F)c4C3=O)cn2)cn1 (stereo not drawn) [Example 390, 7-(2-fluoro-4-(2,2,2-trifluoro-1-hydroxyethyl)phenoxy)-2-((6-(1-methyl-1H-pyrazol-4-yl)pyridin-3-yl)methyl)isoindolin-1-one] |
| 60 nM | 86% | CCCc1ccc(Oc2nccc3c2C(=O)N(Cc2ccc(C(=O)NC)nc2)C3)c(F)c1 [Example 455, 5-((4-(2-fluoro-4-propylphenoxy)-3-oxo-1,3-dihydro-2H-pyrrolo[3,4-c]pyridin-2-yl)methyl)-N-methylpyridine-2-carboxamide] |
| 88 nM | 106% | C[C@@H](O)[C@@H](C)Oc1nccc2c1C(=O)N(Cc1ccc(F)cc1F)C2 [Example 424, 2-(2,4-difluorobenzyl)-4-(((2R,3R)-3-hydroxybutan-2-yl)oxy)-1,2-dihydro-3H-pyrrolo[3,4-c]pyridin-3-one] |
| 63 nM | 76% | Cn1cc(-c2ccc(CN3Cc4cccc(Oc5c(F)cccc5C#N)c4C3=O)cn2)cn1 [Example 65, 3-fluoro-2-((2-((6-(1-methyl-1H-pyrazol-4-yl)pyridin-3-yl)methyl)-3-oxo-2,3-dihydro-1H-isoindol-4-yl)oxy)benzonitrile] |
| 65 nM | 96% | Cn1ccc(-c2ccc(CN3Cc4ncnc(Oc5c(F)cccc5F)c4C3=O)cc2)n1 [Example 395, 4-(2,6-difluorophenoxy)-6-(4-(1-methyl-1H-pyrazol-3-yl)benzyl)-6,7-dihydro-5H-pyrrolo[3,4-d]pyrimidin-5-one] |
| 76 nM | 100% | Cc1cc(-c2ccc(CN3Cc4ccnc(Oc5c(F)cc(F)cc5C5CC5)c4C3=O)cc2)cnn1 [Example 361, 4-(2-cyclopropyl-4,6-difluorophenoxy)-2-(4-(6-methylpyridazin-4-yl)benzyl)-1,2-dihydro-3H-pyrrolo[3,4-c]pyridin-3-one] |
